Source: US20260034277A1, “SYSTEMS AND METHODS FOR PATHOGEN INACTIVATION OF BLOOD PRODUCTS” (Cerus Corporation, priority 2024, published 2026)

Legend:
[1] = Stability of S-303 after reconstitution, HPLC percent total peak area; type: physicochemical
From the text: Increasing the throughput of RBC processing over the current process may benefit from the preparation of multi-use “bulk” containers of S-303 and GSH stock solutions for transfer (e.g., sequential transfer) into multiple processing sets to treat multiple RBC units. However, the instability of S-303 after reconstitution in the current INTERCEPT Blood System technology would generally not be suitable for such a multi-dose container approach. Toward an objective of multi-dose “bulk” dosing, which would require much longer hold times post-reconstitution, studies were performed to evaluate the stability of S-303 under different conditions, such as when reconstituted at higher concentrations. As control, S-303 was reconstituted at a concentration of 6.1 mM. Additional study arms reconstituted S-303 at 9.4 mM, 14.4 mM and 28.8 mM (Table 10). S-303 levels were measured over 120 min after reconstitution by standard HPLC and calculated as total peak area (e.g., area under the peak, area under the curve) to determine percent stability (percent total area).
Subsequent studies were performed in a similar manner as the above to further evaluate S-303 stability at higher concentrations than tested initially, including reconstitution at 40 mM, 50 mM and 75 mM concentrations.

RBCs = test: Hemolysis after addition to RBCs of S-303/GSH reconstituted in WFI or saline; type: cell-based
Description: A study was performed to evaluate water (WFI, water for injection) as an alternative to saline for reconstitution of S-303 and/or GSH, for potential advantages such as manufacturing, cost of goods and/or regulatory requirements. Initially, the combinations of S-303 and GSH both reconstituted in WFI, or alternatively GSH reconstituted in WFI and S-303 reconstituted in saline were compared to the standard method of reconstituting both GSH and S-303 in saline. Following addition to RBCs, the level of hemolysis was evaluated due to water potentially being a hypotonic environment for the RBC.
Based on the extended stability data above for reconstituting S-303 at higher concentrations, an opportunity is provided for using bulk S-303 containers and a dosing device as described above for reconstituting S-303 at higher concentrations followed by a dilution step with diluent as part of the transfer of S-303 to the RBC in the mixing container. With such a dilution step, water may be substituted as an alternative to saline in the reconstitution step for the bulk S-303, followed by dilution in saline prior to each transfer step into individual RBC processing sets. To evaluate the feasibility of water reconstitution followed by saline dilution, an additional study was performed. […]

[2] = Stability of S-303 after reconstitution, HPLC percent total peak area; type: physicochemical; remark: listed apart in the source

## O=C(CCNc1c2ccccc2nc2ccccc12)OCCN(CCCl)CCCl [S-303, β-alanine, N-(acridin-9-yl), 2-[bis(2-chloroethyl)amino]ethyl ester]
[1]; 75 mM
  stability, glass vials vs hemocompatible blood bags of different sheeting materials: no differences in stability observed
[1]; reconstituted at 6.1 mM (control), 1 min
  Mean % stability: 98%
[1]; reconstituted at 6.1 mM (control), 10 min
  Mean % stability: 97%
[1]; reconstituted at 6.1 mM (control), 20 min
  Mean % stability: 95%
[1]; reconstituted at 6.1 mM (control), 30 min
  Mean % stability: 94%
[1]; reconstituted at 6.1 mM (control), 45 min
  Mean % stability: 92%
[1]; reconstituted at 6.1 mM (control), 60 min
  Mean % stability: 90%
[1]; reconstituted at 6.1 mM (control), 90 min
  Mean % stability: 87%
[1]; reconstituted at 6.1 mM (control), 120 min
  Mean % stability: 85%
[1]; reconstituted at 9.4 mM, 1 min
  Mean % stability: 98%
[1]; reconstituted at 9.4 mM, 10 min
  Mean % stability: 97%
[1]; reconstituted at 9.4 mM, 20 min
  Mean % stability: 96%
[1]; reconstituted at 9.4 mM, 30 min
  Mean % stability: 95%
[1]; reconstituted at 9.4 mM, 45 min
  Mean % stability: 93%
[1]; reconstituted at 9.4 mM, 60 min
  Mean % stability: 92%
[1]; reconstituted at 9.4 mM, 90 min
  Mean % stability: 90%
[1]; reconstituted at 9.4 mM, 120 min
  Mean % stability: 87%
[1]; reconstituted at 14.4 mM, 1 min
  Mean % stability: 99%
[1]; reconstituted at 14.4 mM, 10 min
  Mean % stability: 97%
[1]; reconstituted at 14.4 mM, 20 min
  Mean % stability: 96%
[1]; reconstituted at 14.4 mM, 30 min
  Mean % stability: 96%
[1]; reconstituted at 14.4 mM, 45 min
  Mean % stability: 95%
[1]; reconstituted at 14.4 mM, 60 min
  Mean % stability: 94%
[1]; reconstituted at 14.4 mM, 90 min
  Mean % stability: 92%
[1]; reconstituted at 14.4 mM, 120 min
  Mean % stability: 90%
[1]; reconstituted at 28.8 mM, 1 min
  Mean % stability: 99%
[1]; reconstituted at 28.8 mM, 10 min
  Mean % stability: 98%
[1]; reconstituted at 28.8 mM, 20 min
  Mean % stability: 97%
[1]; reconstituted at 28.8 mM, 30 min
  Mean % stability: 97%
[1]; reconstituted at 28.8 mM, 45 min
  Mean % stability: 96%
[1]; reconstituted at 28.8 mM, 60 min
  Mean % stability: 95%
[1]; reconstituted at 28.8 mM, 90 min
  Mean % stability: 94%
[1]; reconstituted at 28.8 mM, 120 min
  Mean % stability: 92%
[1]; reconstituted at 28.8 mM, up to 60 minutes
  percent stable: > 95%
[1]; reconstituted at 75 mM, through 150 min
  stability: at least 95%
RBCs; S-303 reconstituted at 28.8 mM or 50 mM in WFI, diluted to 6 mM in saline prior to addition to RBCs, GSH in WFI (FIG. 7)
  hemolysis: eliminated the issue of hydrolysis previously observed
RBCs; S-303 reconstituted in WFI, after addition to RBCs, compared with saline reconstitution (FIG. 6)
  level of hemolysis: notable levels of hemolysis
[2]; 100 mM concentration
  stability time, extrapolation of the data in a best fit curve: approximately 170 min
[2]; 150 mM concentration
  stability time, extrapolation of the data in a best fit curve: ~240 min
